Target: TRPC5–C1 channels (Homo sapiens, UniProt P48995+Q9UL62)
Assay: [Ca2+]i measurement in (Tet+) HEK T-REx cells expressing hTRPC5-C1 concatemer
Assay type: cell-based
Description: HEK T‐REx™ cell line was transfected with TRPC5‐SYFP2 or TRPC4‐SYFP2 using FuGENE® HD transfection reagent. After 48 hr, cells were put under antibiotic selection using 400 μg·ml^−1 zeocin and 10 μg·ml^−1 blasticidin S (Invivogen, San Diego, California, USA). Medium changes were carried out regularly to remove dead cells. HEK T‐REx cells expressing tetracycline‐inducible human TRPC5, TRPC4–C1, and TRPC5–C1 were created as described previously (Akbulut et al., 2015; Ludlow et al., 2017; Rubaiy, Ludlow, Henrot, et al., 2017). TRPC5–C1 and TRPC4–C1 concatemers allow expression of functional channels with defined 2:2 stoichiometry that display ion permeability and current–voltage relationships distinct from those of homomeric TRPC4:C4 or TRPC5:C5 channels and consistent with those obtained upon co‐expression of TRPC1 with TRPC4 or TRPC5 (Ludlow et al., 2017; Rubaiy, Ludlow, Bon, & Beech, 2017; Rubaiy, Ludlow, Henrot, et al., 2017). Cells were cultured in DMEM‐F12 GlutaMAX (Invitrogen, Paisley, UK) containing 10% FBS (Sigma‐Aldrich, Gillingham, UK), with the addition of blasticidin (10 μg·ml^−1) and zeocin (400 μg·ml^−1) to maintain the stable incorporation of the tetracycline repressor and the channel of interest, respectively. Expression of proteins was induced by the addition of tetracycline (1 μg·ml^−1, 24 hr). Cells were maintained in a humidified incubator with 5% CO2 at 37°C. HEK 293 cells stably expressing tetracycline‐regulated human http://www.guidetopharmacology.org/GRAC/ObjectDisplayForward?objectId=494 were prepared similarly and have also been described previously (McHugh, Flemming, Xu, Perraud, & Beech, 2003). For experiments using transient co‐expression of TRPC1 and TRPC5, HEK cells at 40–60% confluency were transfected with pIRES2‐AcGFP1 and pIRES2‐DsRed‐Express2 plasmids containing human TRPC1 and TRPC5, respectively, using Lipofectamine 3000 (ThermoFisher Scientific, Yokohama, Japan). All experiments using transient expression were performed within 48 hr after transfection. […]

TRPC5–C1 channels, sequence (Q9UL62 whole entry): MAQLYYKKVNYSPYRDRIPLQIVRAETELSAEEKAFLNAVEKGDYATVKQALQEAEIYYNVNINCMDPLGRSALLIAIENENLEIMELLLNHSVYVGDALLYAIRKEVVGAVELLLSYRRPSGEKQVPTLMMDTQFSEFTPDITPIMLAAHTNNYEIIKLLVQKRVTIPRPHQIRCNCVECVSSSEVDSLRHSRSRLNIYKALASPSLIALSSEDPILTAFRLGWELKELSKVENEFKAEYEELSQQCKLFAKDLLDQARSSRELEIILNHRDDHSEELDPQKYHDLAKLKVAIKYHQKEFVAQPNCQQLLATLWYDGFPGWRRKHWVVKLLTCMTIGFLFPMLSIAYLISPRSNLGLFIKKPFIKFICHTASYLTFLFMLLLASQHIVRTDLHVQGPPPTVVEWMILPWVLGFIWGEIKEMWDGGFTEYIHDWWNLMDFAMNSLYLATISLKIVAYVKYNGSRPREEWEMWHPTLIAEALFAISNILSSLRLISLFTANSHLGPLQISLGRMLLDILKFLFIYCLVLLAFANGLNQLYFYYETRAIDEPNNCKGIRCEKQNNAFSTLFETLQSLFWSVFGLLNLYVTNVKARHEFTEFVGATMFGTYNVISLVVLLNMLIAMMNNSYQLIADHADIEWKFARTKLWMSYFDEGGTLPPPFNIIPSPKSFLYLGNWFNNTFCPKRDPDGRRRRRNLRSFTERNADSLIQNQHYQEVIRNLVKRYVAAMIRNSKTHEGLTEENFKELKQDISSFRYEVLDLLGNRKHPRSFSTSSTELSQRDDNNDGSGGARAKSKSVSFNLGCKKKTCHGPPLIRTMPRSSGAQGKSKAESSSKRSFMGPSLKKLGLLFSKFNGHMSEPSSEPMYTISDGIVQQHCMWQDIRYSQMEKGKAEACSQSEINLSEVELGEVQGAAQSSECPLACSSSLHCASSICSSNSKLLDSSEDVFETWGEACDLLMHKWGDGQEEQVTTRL
TRPC5–C1 channels, sequence (P48995 whole entry): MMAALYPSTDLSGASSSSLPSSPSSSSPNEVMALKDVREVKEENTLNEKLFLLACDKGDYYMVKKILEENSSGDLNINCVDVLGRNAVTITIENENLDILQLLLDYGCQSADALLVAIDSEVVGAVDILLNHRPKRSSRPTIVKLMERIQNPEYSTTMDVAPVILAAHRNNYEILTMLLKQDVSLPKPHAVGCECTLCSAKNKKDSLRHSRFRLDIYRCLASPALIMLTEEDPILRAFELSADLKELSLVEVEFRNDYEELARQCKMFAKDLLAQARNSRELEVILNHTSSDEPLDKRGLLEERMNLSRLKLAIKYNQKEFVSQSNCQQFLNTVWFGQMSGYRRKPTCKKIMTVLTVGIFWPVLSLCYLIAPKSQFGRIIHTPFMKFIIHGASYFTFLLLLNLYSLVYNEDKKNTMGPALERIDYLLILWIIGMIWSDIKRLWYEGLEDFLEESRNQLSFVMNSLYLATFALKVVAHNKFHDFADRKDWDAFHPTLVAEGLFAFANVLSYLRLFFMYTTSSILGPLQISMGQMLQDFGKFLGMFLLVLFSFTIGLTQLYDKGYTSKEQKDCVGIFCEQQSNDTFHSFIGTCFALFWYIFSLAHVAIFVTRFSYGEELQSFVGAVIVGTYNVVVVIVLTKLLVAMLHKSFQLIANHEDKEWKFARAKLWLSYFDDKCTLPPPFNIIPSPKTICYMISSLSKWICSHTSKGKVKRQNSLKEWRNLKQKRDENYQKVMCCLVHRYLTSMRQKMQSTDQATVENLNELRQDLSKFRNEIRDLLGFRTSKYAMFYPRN

Compound: Cn1c(=O)n(CCCO)c(=O)c2c1nc(Oc1ccc(Cl)c(OC(F)(F)F)c1)n2Cc1ccc(Cl)cc1 [AM237]
- Hill slope, inhibition of EA response: -1.2
- Effect of pre-incubation on basal [Ca2+]i (0.1–100 nM AM237): did not raise
- Activation upon acute administration ([Ca2+]i) (3-300 nM AM237): lack of activation
